Assay results reported in US20140171431A1, “AZOLE HETEROCYCLIC COMPOUND, PREPARATION METHOD, PHARMACEUTICAL COMPOSITION AND USE” (priority 2011, published 2014).
Like-named read-outs stand apart in the source and are kept apart here.

Assays:
atherosclerotic plaque = conditions: diabetic/hypercholesterolemic swine, Wilensky et al.; cited from earlier work
Lp-PLA2 in human serum = target: T1, Lp-PLA2 in human serum (Homo sapiens, UniProt Q13093); experiment: In vitro inhibitory activity towards the enzyme Lp-PLA2 in human serum, [3H]PAF substrate; format: biochemical; conditions: for inhibition at 0.01 µM: 10 nM; for inhibition at 0.1 µM: 100 nM
T1 construct: from tissue
T1 sequence (Q13093 22-441): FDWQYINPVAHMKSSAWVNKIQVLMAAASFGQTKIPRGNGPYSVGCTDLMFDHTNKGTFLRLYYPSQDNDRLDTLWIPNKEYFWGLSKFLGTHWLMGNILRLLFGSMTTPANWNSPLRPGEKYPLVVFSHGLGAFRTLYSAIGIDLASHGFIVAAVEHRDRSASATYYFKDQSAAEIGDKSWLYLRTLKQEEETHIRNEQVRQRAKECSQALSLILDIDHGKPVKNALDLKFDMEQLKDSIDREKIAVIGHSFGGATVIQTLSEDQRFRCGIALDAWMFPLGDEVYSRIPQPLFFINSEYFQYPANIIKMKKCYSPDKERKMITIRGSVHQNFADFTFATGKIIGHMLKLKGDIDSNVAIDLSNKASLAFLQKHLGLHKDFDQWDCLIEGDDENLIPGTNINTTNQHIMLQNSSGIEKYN
Summary of the method: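 Human plasma was preincubated with compound 10 min at 37 °C in 50 mM HEPES, 150 mM NaCl, pH 7.4. Reaction started with 20 nM [3H]PAF, run 10 min at 37 °C, then extracted with CHCl3/MeOH (2:1); radioactivity of the supernatant was counted.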

Lp-PLA2 in rabbit serum = target: T2, Lp-PLA2 in rabbit serum (Oryctolagus cuniculus, UniProt G1SE06); experiment: In vitro inhibitory activity towards the enzyme Lp-PLA2 in rabbit serum, [3H]PAF substrate; format: biochemical; conditions: 100 nM
T2 construct: from tissue; host or cells: rabbit serum
T2 sequence (G1SE06 22-423): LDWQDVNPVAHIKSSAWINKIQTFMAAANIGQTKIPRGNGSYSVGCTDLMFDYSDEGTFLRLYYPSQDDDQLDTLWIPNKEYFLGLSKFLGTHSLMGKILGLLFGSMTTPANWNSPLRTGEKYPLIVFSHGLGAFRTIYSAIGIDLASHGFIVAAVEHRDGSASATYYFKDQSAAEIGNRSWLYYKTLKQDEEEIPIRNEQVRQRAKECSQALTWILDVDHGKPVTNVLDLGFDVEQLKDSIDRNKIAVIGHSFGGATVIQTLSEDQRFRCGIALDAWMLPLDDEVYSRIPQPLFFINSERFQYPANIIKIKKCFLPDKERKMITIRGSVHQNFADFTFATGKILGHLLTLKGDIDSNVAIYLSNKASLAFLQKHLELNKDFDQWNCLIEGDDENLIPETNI

[1] = human serum, read-out: inhibition, %
[2] = read-out: inhibitory rate towards the human serum derived Lp-PLA2 enzyme
[3] = rabbit serum, read-out: inhibition, %
[4] = read-out: inhibitory rate towards the rabbit serum derived Lp-PLA2 enzyme

| Compound | inhibition at 0.01 µM (Lp-PLA2 in human serum; [1]) [%] | inhibition at 0.01 µM (Lp-PLA2 in human serum; [2]) [%] | inhibition at 0.1 µM (Lp-PLA2 in human serum; human serum) [%] | inhibition at 0.1 µM (Lp-PLA2 in rabbit serum; [3]) [%] | inhibition at 0.1 µM (Lp-PLA2 in rabbit serum; [4]) [%] | atherosclerotic plaque progression (atherosclerotic plaque) |
| --- | --- | --- | --- | --- | --- | --- |
| CCN(CC)CCN(Cc1ccc(-c2ccc(C(F)(F)F)cc2)cc1)C(=O)Cn1c(SCc2ccc(F)cc2)nc(=O)c2c1CCC2 [darapladib, Darapladib] |  |  |  |  |  | remarkably reduced the atherosclerotic plaque progression |
| C=C(OC(C)=O)c1nnc(Cn2c(SCc3ccc(F)cc3)nc(=O)c3c2CCC3)n1Cc1ccc(-c2ccc(C(F)(F)F)cc2)cc1 [Example 119, 1-(5-((2-(4-fluorobenzylthio)-4-oxo-4,5,6,7-tetrahydro-1H-cyclopenta[d]pyrimidin-1-yl)methyl)-4-((4′-(trifluoromethyl)biphenyl-4-yl)methyl)-4H-1,2,4-triazol-3-yl)vinyl acetate] | 94 | > 80 | 98 | 93 | > 90 |  |
| CN(Cc1ccc(F)cc1)Cc1nnc(Cn2c(SCc3ccc(F)cc3)nc(=O)c3c2CCC3)n1Cc1ccc(-c2ccc(C(F)(F)F)cc2)cc1 [Example 81, 1-((5-(((4-fluorobenzyl)(methyl)amino)methyl)-4-((4′-(trifluoromethyl)biphenyl-4-yl)methyl)-4H-1,2,4-triazol-3-yl)methyl)-2-(4-fluorobenzylthio)-6,7-dihydro-1H-cyclopenta[d]pyrimidin-4(5H)-one] | 93 | > 80 | 98 | 90 | > 90 |  |

Second part, led by results:

| inhibition at 0.01 µM (Lp-PLA2 in human serum; [1]) [%] | inhibition at 0.01 µM (Lp-PLA2 in human serum; [2]) [%] | inhibition at 0.1 µM (Lp-PLA2 in human serum; human serum) [%] | inhibition at 0.1 µM (Lp-PLA2 in rabbit serum; [3]) [%] | inhibition at 0.1 µM (Lp-PLA2 in rabbit serum; [4]) [%] | Compound | atherosclerotic plaque progression (atherosclerotic plaque) |
| --- | --- | --- | --- | --- | --- | --- |
| 76 |  |  | 88 |  | O=c1nc(SCc2ccc(F)cc2)n(Cc2nnc(COCCO)n2Cc2ccc(-c3ccc(C(F)(F)F)cc3)cc2)c2c1CCC2 [Example 123, 2-(4-fluorobenzylthio)-1-((5-((2-hydroxyethoxy)methyl)-4-((4′-(trifluoromethyl)biphenyl-4-yl)methyl)-4H-1,2,4-triazol-3-yl)methyl)-6,7-dihydro-1H-cyclopenta[d]pyrimidin-4(5H)-one] |  |
| 92 | > 80 |  | 95 | > 90 | C[N+](C)(CCO)Cc1nnc(Cn2c(SCc3ccc(F)cc3)nc(=O)c3c2CCC3)n1Cc1ccc(-c2ccc(C(F)(F)F)cc2)cc1 [Example 122, N-((5-((2-(4-fluorobenzylthio)-4-oxo-4,5,6,7-tetrahydro-1H-cyclopenta[d]pyrimidin-1-yl)methyl)-4-((4′-(trifluoromethyl)biphenyl-4-yl)methyl)-4H-1,2,4-triazol-3-yl)methyl)-2-hydroxy-N,N-dimethylethanaminium chloride] |  |
| 77 |  | 96 | 86 |  | CN(Cc1nnc(Cn2c(SCc3ccc(F)cc3)nc(=O)c3c2CCC3)n1Cc1ccc(-c2ccc(C(F)(F)F)cc2)cc1)C1CC1 [Example 101, 1-((5-((cyclopropyl(methyl)amino)methyl)-4-((4′-(trifluoromethyl)biphenyl-4-yl)methyl)-4H-1,2,4-triazol-3-yl)methyl)-2-(4-fluorobenzylthio)-6,7-dihydro-1H-cyclopenta[d]pyrimidin-4(5H)-one] |  |
